Drawing on PubChem BioAssay (NCI), this text covers GI50 and TGI for eight molecules.

Test systems include LOX IMVI melanoma; KM12 colon; MOLT-4 leukemia; UACC-62 melanoma; MCF7 breast; SF-539 CNS; MDA-MB-231 breast; HS 578T breast; HL-60(TB) leukemia; A549 NSCLC.
Test in all cases: inhibition of tumour cell growth, NCI panel, 48 h

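Five concentrations, 48 hours, 96-well plates. GI50 = concentration required for 50% inhibition of growth. The concentration for full growth arrest is given as TGI.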

In the case of `Cc1ccc(-c2nc([P+](c3ccccc3)(c3ccccc3)c3ccccc3)c(S(=O)(=O)c3ccc(C)cc3)o2)cc1`, the GI50 in the test on LOX IMVI melanoma is 328 nM; in the test with KM12 colon, 1750 nM; in the test with MOLT-4 leukemia, 1060 nM; in the test on UACC-62 melanoma, 1530 nM; in the test on MCF7 breast, 1520 nM; in the test with SF-539 CNS, 1580 nM. Besides, the GI50 with MDA-MB-231 breast was 1.52 µM; in the test with HS 578T breast it was 1700 nM; in the test with HL-60(TB) leukemia, 1670 nM; with A549 NSCLC, 2000 nM. Also, the TGI in the test with LOX IMVI melanoma was found to be 1.3 µM; in the test on KM12 colon it was 3.83 µM; with MOLT-4 leukemia, 4.63 µM; with UACC-62 melanoma, 2.89 µM; in the test with MCF7 breast, 3.83 µM; in the test on SF-539 CNS, 2920 nM. The TGI with MDA-MB-231 breast was 2.93 µM; in the test on HS 578T breast, 5.31 µM; in the test on HL-60(TB) leukemia, 4.38 µM; in the test with A549 NSCLC, 5.14 µM.
For the molecule `O=C(O)CCC(=O)c1ccc2sc3ccccc3c2c1`, the TGI in the test with LOX IMVI melanoma was more than 100 µM; in the test with KM12 colon, more than 100 µM; with MOLT-4 leukemia it was more than 100 µM; in the test with UACC-62 melanoma, more than 100 µM; with MCF7 breast it was more than 100 µM; in the test on SF-539 CNS, more than 100000 nM. Moreover, the TGI in the test with MDA-MB-231 breast, with HS 578T breast, with HL-60(TB) leukemia and with A549 NSCLC was more than 100 µM throughout.
On to `OC(C#Cc1ccccc1)(c1ccccc1)c1ccccc1`, for which the TGI was 38 µM in the test with LOX IMVI melanoma; 78.4 µM in the test with KM12 colon; more than 100 µM with MOLT-4 leukemia; more than 100 µM in the test on UACC-62 melanoma; 45.7 µM in the test with MCF7 breast; more than 100000 nM with SF-539 CNS. Moreover, the TGI in the test on MDA-MB-231 breast was more than 100 µM; in the test with HS 578T breast it was more than 100 µM; with HL-60(TB) leukemia, more than 100 µM; with A549 NSCLC, 52.9 µM.
In the case of `CCCCCCNC(=O)Oc1ccc(/C(=C(\C)c2ccc(Cl)cc2)c2ccc(OCCN3CCCCC3)cc2)cc1`, the GI50 in the test with LOX IMVI melanoma is 4830 nM; in the test with KM12 colon it was 3530 nM; with MOLT-4 leukemia, 1470 nM; in the test with UACC-62 melanoma, 4030 nM; with MCF7 breast, 104 nM; in the test on SF-539 CNS, 3990 nM. The GI50 is 5.35 µM in the test with MDA-MB-231 breast, 4220 nM in the test on HS 578T breast, 1170 nM in the test with HL-60(TB) leukemia and 4730 nM with A549 NSCLC. For the same molecule, the TGI in the test on LOX IMVI melanoma was determined as 9.41 µM; in the test on KM12 colon, 10.4 µM; in the test on MOLT-4 leukemia, 23.3 µM; in the test with UACC-62 melanoma it was 8.59 µM; in the test on MCF7 breast, 5.38 µM; in the test with SF-539 CNS it was 8550 nM. Moreover, the TGI in the test with MDA-MB-231 breast was determined as 10.2 µM; in the test on HS 578T breast, 11.6 µM; with HL-60(TB) leukemia it was 4.88 µM; with A549 NSCLC it was 10.5 µM.
As for `CCC1(O)C(=O)OCc2c1cc1n(c2=O)Cc2cc3c(NC(=O)CN)cccc3nc2-1` (stereo not given), the GI50 in the test on LOX IMVI melanoma was 146 nM; with KM12 colon, 1870 nM; in the test with MOLT-4 leukemia it was 43.8 nM; with UACC-62 melanoma, 92.7 nM; in the test on MCF7 breast it was 181 nM; in the test on SF-539 CNS, 110 nM. Also, the GI50 is 58.1 µM in the test on MDA-MB-231 breast, 28900 nM in the test with HS 578T breast, 129 nM with HL-60(TB) leukemia and 1200 nM in the test on A549 NSCLC. Also, the TGI in the test with LOX IMVI melanoma was 4.08 µM; in the test with KM12 colon it was 44.7 µM; with MOLT-4 leukemia, 1.13 µM; in the test on UACC-62 melanoma, 0.852 µM; with MCF7 breast, more than 43.2 µM; with SF-539 CNS it was 821 nM. Moreover, the TGI is more than 100 µM with MDA-MB-231 breast, more than 100 µM with HS 578T breast, 1.64 µM in the test with HL-60(TB) leukemia and more than 67.7 µM with A549 NSCLC.
Consider `Oc1cccc2ccc(N/N=C/c3cc(CN4CCOCC4)c(O)c4ncccc34)nc12`, for which the GI50 with LOX IMVI melanoma was 42.6 nM; in the test with KM12 colon it was 26.7 nM; with MOLT-4 leukemia it was 53 nM; in the test on UACC-62 melanoma, 33.9 nM; in the test on MCF7 breast it was 21 nM; in the test on SF-539 CNS, 35.2 nM. In addition, the GI50 in the test with MDA-MB-231 breast is 0.0441 µM; with HS 578T breast it was 47.9 nM; in the test on HL-60(TB) leukemia, 29.8 nM; in the test on A549 NSCLC it was 24.5 nM. Further, the TGI amounted to 1.41 µM in the test on LOX IMVI melanoma; 3.41 µM with KM12 colon; 5.62 µM with MOLT-4 leukemia; 0.55 µM in the test with UACC-62 melanoma; 1.54 µM in the test on MCF7 breast; 1640 nM in the test on SF-539 CNS. Moreover, the TGI with MDA-MB-231 breast was determined as 2.25 µM; in the test with HS 578T breast, 17.2 µM; with HL-60(TB) leukemia, 1.49 µM; in the test with A549 NSCLC, 1.23 µM.
With `COc1ccc(/C=C(\C#N)n2nnc3c(F)cccc32)cc1`, the GI50 in the test with LOX IMVI melanoma was 493 nM; in the test with KM12 colon, 390 nM; with MOLT-4 leukemia, 456 nM; with UACC-62 melanoma it was 303 nM; in the test with MCF7 breast, 715 nM; in the test on SF-539 CNS it was 322 nM. Also, the GI50 is 0.551 µM with MDA-MB-231 breast, 309 nM with HS 578T breast, 229 nM with HL-60(TB) leukemia and 780 nM with A549 NSCLC. Besides, the TGI in the test on LOX IMVI melanoma is 16.6 µM; in the test on KM12 colon, more than 100 µM; in the test on MOLT-4 leukemia, more than 100 µM; in the test on UACC-62 melanoma it was 15 µM; in the test on MCF7 breast, more than 100 µM; in the test on SF-539 CNS, 1480 nM. For the same molecule, the TGI was 3.68 µM in the test with MDA-MB-231 breast, 1.98 µM in the test on HS 578T breast, 0.82 µM in the test on HL-60(TB) leukemia and more than 100 µM with A549 NSCLC.
For `c1ccc2c(c1)Nc1ccncc1S2`, the GI50 was 23800 nM with LOX IMVI melanoma; 14200 nM with KM12 colon; 31100 nM with MOLT-4 leukemia; 16500 nM with UACC-62 melanoma; 28700 nM with MCF7 breast; 19700 nM in the test with SF-539 CNS. For the same molecule, the GI50 in the test with MDA-MB-231 breast is 26.9 µM; in the test on HS 578T breast it was 11400 nM; in the test on HL-60(TB) leukemia, 19400 nM; with A549 NSCLC it was 26300 nM. In addition, the TGI is more than 100 µM in the test on LOX IMVI melanoma; 42.5 µM with KM12 colon; more than 100 µM in the test with MOLT-4 leukemia; 56.9 µM in the test on UACC-62 melanoma; more than 100 µM with MCF7 breast; 67100 nM in the test on SF-539 CNS. Moreover, the TGI was more than 100 µM in the test with MDA-MB-231 breast, 48.4 µM in the test with HS 578T breast, 75.4 µM in the test with HL-60(TB) leukemia and more than 100 µM in the test on A549 NSCLC.
